# Source: patent US20080207521A1, “PEPTIDE LIGAND TO IMPAIR CANCER CELL MIGRATION” (priority 2005, published 2008)
# Ends that are not written are not given here. * marks the point of attachment. For = O=C*
# Experiments:
# MDA-MB-468 cells [1] = test: Adhesion of MDA-MB-468 breast cancer cells to collagen I (MTS); type: cell-based, human; settings: for adhesion to collagen I, N-terminal deletion variants and formylation of peptide 175: 60 min; for MDA-MB-468 cell adhesion: control 15.3±3.6, n=6
# Description: (§1) The adhesion assay was carried out as previously described (12). Briefly, cells were serum-depleted for 16 h, detached with Versene and allowed to adhere as single cells to collagen I for 60 (MDA-MB-468) or 90 min (HB2) at 37° C. Non-adherent cells were removed by washing with PBS. The adherent cells were incubated with a (3-(4,5-dimethylthiazol-2-yl)-5-(3-carboxymethoxyphenyl)-2-(-4-sulfophenyl)-2H-tetrazolium, inner salt (MTS) dye reduction assay (Promega, Madison, Wis.) and absorbance was measured at 490 nm using a Fluostar microplate reader from BMG LabTechnologies (GmbH, Offenberg, Germany). In each experiment a single value was calculated based on the mean of adhesion from six separate wells after the adhesion to plastic alone had been subtracted. The CM used as a control in the adhesion assays was obtained from confluent Wnt-5a overexpressing HB2 cells (for experiments with Wnt-5a antisense HB2 cells) or Wnt-5a overexpressing MCF-7 cells (for MDA-MB-468 cells) stably transfected with a vector over-expressing Wnt5a. A collected CM was always used within three days.
# Peptide-induced effects on adhesion and DDR1 phosphorylation in MDA-MB-468 breast cancer cells. (A) Western blot analysis of Wnt-5a protein expression in Wnt-5a antisense and Wnt-5a over-expressing HB2 cells in comparison to MDA-MB-468 tumour cells. The blot is representative of 9 separate experiments. (B) Peptide-induced effects on MDA-MB-468 tumour cell adhesion. The cells were allowed to adhere to collagen type I-coated wells for 60 min in the absence or presence of 100 μM of the indicated peptides or CM. The amounts of adhesive cells were analyzed as described in the methods and the results are given as means±SEM of 8 separate experiments. (C) MDA-MB-468 cell adhesion to collagen I-coated wells in the absence or presence of peptide 175 or a peptide with same amino acid sequence except for a substitution of cysteine for alanine (175Ala) or CM. The amount of adherent cells was estimated as in panel A and expressed as means±SEM of 6 separate experiments, ns=not significant, ** p<0.01 and *** p<0.001. (D) Single MDA-MB-468 cells were allowed to adhere to collagen I-coated plates for 60 min in the absence or presence of the indicated peptides (100 μM), CM or recombinant Wnt-5a (0.8 µg/ml). DDR1 immunoprecipitates were Western blotted with first an anti-phosphotyrosine Ab and then after stripping with an anti-DDR1 Ab. The blots shown are representative of 6 separate experiments.
# (§2) Effects of peptide 175 modifications on its ability to induce MDA-MB-468 tumour cell adhesion and migration. (A) The cells were allowed to adhere for 60 min to collagen-I coated wells in the absence or presence of peptide 175, three stepwise N-terminal deletion variants of peptide 175 or a formylated version of the tested hexapeptide derived from peptide 175. The amounts of adhesive cells were analyzed as described in the methods and the results are given as means±SEM of 6 separate experiments. (B and C) The cells were allowed to migrate for 18 h in the absence or presence of 1 or 10 μM of peptide 175 (B) or the formylated hexapeptide (C). The data are given as means±SEM of 6 separate experiments, each performed in triplicate. * p<0.05, p<0.01.
# [2] = test system: Wnt-5a antisense HB2 cells; test: Adhesion of Wnt-5a antisense HB2 cells to collagen I (MTS); type: cell-based, human; settings: for adhesion to collagen I, concentration-dependent analysis: 95% pure peptides, different concentrations
# Description: as §1
# To control the specificity of the CM, it was incubated with either the Wnt-5a or a control Ab for 45 min at 37° C. Subsequently 10 μl Protein A Sepharose was added for 30 min and after the protein A-bound antibodies were collected by centrifugation the remaining supernatants were used for the experiments.
# Effects of crude peptides on adhesion of Wnt-5a antisense HB2 cells to collagen. (A) Single cells were allowed to adhere for 90 min in the absence or presence of the indicated crude peptides (100 μM). The amounts of adhesive cells were analyzed as described in the methods and the results are given as means±SEM of 7 separate experiments. (B) Adhesion of Wnt-5a antisense HB2 cells to collagen was analyzed after pre-treating the cells with an anti-[…]1-integrin Ab for 45 min before letting them adhere for 90 min in the absence or presence of peptides 171 or 175 (100 μM) or CM. The amounts of adhesive cells were analyzed as described in the methods and the results are given as means±SEM of 6 separate experiments (C) The diagram outlines a control of the presently used CM. The cells were allowed to adhere to collagen I-coated wells in the absence or presence of normal CM or Wnt-5a depleted CM. The amounts of adhesive cells were analyzed as described in the methods and the results are given as means±SEM of 6 separate experiments. Ns=not significant, * p<0.05, ** p<0.01 and *** p<0.001.
# Effects of the selected and pure peptides on the ability of Wnt-5a antisense HB2 cells to adhere and migrate. (A-E) The ability of the cells to adhere to collagen type I-coated wells was analyzed as previously described for FIG. 2 in the absence or presence of different concentrations of the indicated peptide. (F) Effect of the indicated peptides on migration of Wnt-5a antisense HB2 in a transwell migration assay. The cells were allowed to migrate for 18 h in the absence or presence of 100 μM peptide or 0.4 μg/ml of recombinant Wnt5a. The data are given as means±SEM of 6-7 separate experiments, each performed in triplicate. * p<0.05 and ** p<0.01.
# DDR1 = test: Collagen-induced DDR1 phosphorylation in Wnt-5a antisense HB2 cells (immunoprecipitation/Western blot); type: cell-based, human; settings: crude peptide (approximately 65% pure) 100 μM; 90 min on collagen I
# Description: The phosphorylation status of DDR1 was analyzed as previously described (12), with the following modifications. After serum-depletion for 16 h, the cells were detached with Versene and then allowed to adhere to collagen I for 60 (MDA-MB-468) or 90 min (HB2) at 37° C. The experiments were terminated by lysing both adherent and non-adherent cells with a lysis buffer (50 mM Tris pH 7.4, 1% Triton-X, 5 mM EDTA, 5 mM EGTA, 50 mM NaCl, 10 μg/ml aprotinin, 2.5 mM benzamidine, 1 mM pefabloc, 1 μg/ml leupeptin and 1 mM Na3VO4). For immunoblotting an anti-DDR1 rabbit polyclonal Ab, sc-532 (Santa Cruz Biotech, Santa Cruz, Calif.) was used at a dilution of 1:10,000. The Ab recognizes DDR1b/c, which is essential because collagen only induces phosphorylation of the b or c isoforms of DDR1 in mammary epithelial cells (10).
# Effects of crude peptides on collagen-induced DDR1 phosphorylation in Wnt-5a antisense HB2 cells. Single cells were allowed to adhere to collagen I-coated plates in the presence of the indicated crude peptide (100 μM). (A) Experiments performed in the presence of peptides 167-173. (B) Experiments performed in the presence of peptides 175-180. After 90 min the cells were lysed and DDR1 immunoprecipitated. Subsequently, the immunoprecipitates were subjected to Western blot analysis with an anti-phosphotyrosine Ab and then, after stripping, with an anti-DDR1 Ab to ascertain equal loading. The blots shown are representative of 3 separate experiments The diagrams show densitometric analysis of DDR1 phosphorylation, expressed as per cent of control.
# MDA-MB-468 cells [3] = test: Migration of MDA-MB-468 cells in modified Boyden chamber; type: cell-based, human; settings: 18 h
# Description: The HB2 mammary epithelial cell line, a subclone of the MTSV-1.7 cell line, originating from the laboratory of Dr. J. Taylor-Papadimitriou (11) was used. The HB2 cells were cultured in DMEM supplemented with 10% FBS, 5 U/mi penicillin, 0.5 U/ml streptomycin, 2 mM glutamine, 10 μg/ml bovine insulin and 5 μg/ml hydrocortisone. The human mammary carcinoma cell lines MCF-7 and MDA-MB-468 were cultured in DMEM supplemented with 10% FBS, 5 U/ml penicillin, 0.5 U/ml streptomycin and 2 mM glutamine. The pH-experiments were done in MEM supplemented with 10 mM Tris, 0.5% BSA, 5 U/ml penicillin, 0.5 U/ml streptomycin and 2 mM glutamine. The pH 7.4-medium was further supplemented with 4 mM sodium bicarbonate whereas the pH 6.7-medium was not. All cells were incubated at 37° C. in 95% air and 5% CO2.
# Cell migration analyses were performed in a modified Boyden chamber with a polycarbonate membrane (10 μm thick with a porous diameter of 8.0 μm) separating the two chambers (Transwell®; Costar, Cambridge, Mass.). As indicated in some experiments the membranes were coated with collagen by adding collagen-I (10 μg/ml) diluted in 0.25% acetic acid to the upper chamber for 1 h at 37° C., after which it was washed three times with PBS. Each experiment was initiated by detaching the cells by Versene treatment for 10-20 min at 37° C., washed, and re-suspended as a single cell suspension in serum-free DMEM medium supplemented with 0.5% BSA. Together with the indicated agonist a 0.2 ml cell suspension (containing 25,000 MDA-MB-468 or 50,000 HB2 cells) was then added to the upper chamber of the transwell. The lower chamber was filled with 0.6 ml serum-free but BSA-containing DMEM medium supplemented with 1 ng/ml of the chemoattractant IGF-I. As a control, IGF-I was excluded in some wells in each separate experiment. The cells were allowed to migrate in the Boyden chamber for 18 h at 37° C. in a humidified atmosphere of 95% air and 5% CO2. The experiments were terminated by removing the non-migratory cells with a cotton-tipped applicator from the upper surface of the membranes. The remaining cells on the lower surface that had migrated through the membrane were stained for 20 min with 0.5% crystal violet diluted in 20% methanol/80% water. After washing the membranes the number of stained cells per membrane and well was counted in an inverted microscope. The value from each separate experiment represents the median value of three individual wells.
# Peptide-induced effects on MDA-MB-468 tumour cell migration and their content of F-actin. (A) The cells were allowed to migrate for 18 h in the absence or presence of the indicated peptides (100 μM) The data in panel A are expressed as means±SEM of 8 separate experiments, each performed in triplicate. * p<0.05. (B) The cells were allowed to adhere to collagen I-coated cover glasses for 18h in the absence or presence of peptide 175 (100 μM). The cells were then stained with Alexa488-Phalloidin as described in the methods section. The illustrated micrographs are representative of 5 separate experiments.
# as §2
# Effects of Frz-5 receptor blocking and reduced pH on the abilities of the formylated hexapeptide and Wnt-5a to inhibit tumour cell migration. […]
# Frz-5 receptor = Frz-5 receptor (Homo sapiens, UniProt Q13467); test: MDA-MB-468 cell migration with Frz-5 receptor blocking Ab or control anti-Frz-2 Ab; type: cell-based; set-up: endogenous in cells; host or cells: MDA-MB-468; settings: formylated hexapeptide 100 μM; Ab 5 μg/ml; 18 h
# Description: The peptide […], corresponding to amino acids 198-217 in the ectodomain of the human Frz-5 receptor was as previously described used to generate a Frz-5 receptor blocking Ab (13). The peptide […], corresponding to amino acids 202-220 in the ectodomain of the human Frz-2 receptor, was used to generate a control anti-Frz-2 Ab. The synthesis of the peptides (the italic letters indicate the Frz-5 and Frz-2 sequences, the cysteine was added for raising and purifying the Ab) and the production of rabbit anti-Frz-5 and anti-Frz-2 antisera were managed by AgriSera (Vännäs, Sweden; permit A69-04 from Ume(a) animal ethic committe). The antisera were affinity purified in the laboratory by coupling the respective peptide antigen to Sulfolink Sepharose over which the respective antisera was then eluted.
# Cell migration analyses were performed in a modified Boyden chamber with a polycarbonate membrane (10 μm thick with a porous diameter of 8.0 μm) separating the two chambers (Transwell®; Costar, Cambridge, Mass.). As indicated in some experiments the membranes were coated with collagen by adding collagen-I (10 μg/ml) diluted in 0.25% acetic acid to the upper chamber for 1 h at 37° C., after which it was washed three times with PBS. […] After washing the membranes the number of stained cells per membrane and well was counted in an inverted microscope. […]
# Sequence of Frz-5 receptor (Q13467 27-585): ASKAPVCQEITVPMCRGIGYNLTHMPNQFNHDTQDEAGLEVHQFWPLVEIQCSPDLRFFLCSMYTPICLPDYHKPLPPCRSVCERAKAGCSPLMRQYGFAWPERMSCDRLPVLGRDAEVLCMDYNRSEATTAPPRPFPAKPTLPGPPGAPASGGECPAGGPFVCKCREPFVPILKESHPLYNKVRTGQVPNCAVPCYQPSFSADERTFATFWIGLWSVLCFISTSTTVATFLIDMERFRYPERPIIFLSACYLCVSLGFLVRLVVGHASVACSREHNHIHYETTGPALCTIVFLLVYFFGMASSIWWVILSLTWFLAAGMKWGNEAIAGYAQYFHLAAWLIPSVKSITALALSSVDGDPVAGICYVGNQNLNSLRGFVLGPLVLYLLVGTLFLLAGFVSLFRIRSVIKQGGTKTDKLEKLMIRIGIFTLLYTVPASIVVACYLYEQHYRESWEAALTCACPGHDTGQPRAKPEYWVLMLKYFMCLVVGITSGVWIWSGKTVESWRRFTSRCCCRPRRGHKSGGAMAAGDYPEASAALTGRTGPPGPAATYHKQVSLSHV
substance,measurement,setting,value
"EGMDGCEL (Human) [octapeptide, N-terminal deletion variant of peptide 175]","adhesion to collagen I, N-terminal deletion variants and formylation of peptide 175",MDA-MB-468 cells [1],still had adhesion-increasing effects
"MDGCEL [hexapeptide, N-terminal deletion variant of peptide 175]","adhesion to collagen I, N-terminal deletion variants and formylation of peptide 175",MDA-MB-468 cells [1],no effect was detectable and none
"LGTQGRLCNKTSEGMDGCEL (Human) [peptide 174, Wnt-5a aa 303-322]","adhesion to collagen I, concentration-dependent analysis",[2],not as effective as the shorter peptide 175
"DARERERIHAKGSYE [peptide 168, Wnt-5a aa 183-197]",adhesion to collagen I,"[2]; crude peptide (65% pure) 100 μM, 90 min",did not have any effect on adhesion
same,DDR1 phosphorylation,DDR1,significant DDR1 phosphorylation
formyl-Met-Asp-Gly-Cys-Glu-Leu (For-MDGCEL) [formylated hexapeptide],inhibition of migration at pH 6.7 versus pH 7.4,MDA-MB-468 cells [3]; 10 μM,as effective in inhibiting MDA-MB-468 cell migration at pH 6.7 as at pH 7.4
same,motility (migration),MDA-MB-468 cells [3]; 10 μM,significantly impaired the motility
same,minimal concentration that had a significant effect on migration,MDA-MB-468 cells [3],10 µM
same,"adhesion to collagen I, N-terminal deletion variants and formylation of peptide 175",MDA-MB-468 cells [1],"restored, and possibly even potentiated its effect on adhesion"
same,effect on migration in presence of anti-Frz-5 or anti-Frz-2 Ab,Frz-5 receptor,mediated via the Frz-5 receptor
fMet-Leu-Phe (MLF) [reference compound],MDA-MB-468 cell adhesion,MDA-MB-468 cells [1],15.7±4.5
same,MDA-MB-468 cell adhesion,MDA-MB-468 cells [1]; listed as N-formyl-Met-Leu-Phe,no effect
"VKAKKATEIVDQFVA [compound 170, Wnt-5a aa 350-364; the 3 cysteines exchanged to alanines]","adhesion to collagen I, concentration-dependent analysis",[2],lost or less consistent
same,DDR1 phosphorylation,DDR1,significant DDR1 phosphorylation
